Biological target: KRas (Homo sapiens, UniProt P01116, G12C)
Experiment: KRas degradation in NCI-H2030 cells by Western blot, normalized to GAPDH (data of Table 14)
Type: cell-based
Parameters: host or cells: NCI-H2030
Settings: for Dmax: NCI-H2030; for Percent Degradation at Indicated Concentration (μM): H2030
Outline: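 After a day without serum, the G12C-homozygous cells received each compound at 0.3, 1 and 3 μM, with VHL-based degraders left for 24 h and other compounds for 72 h. DC50 is the concentration giving half-maximal degradation and DMax the maximal degradation, both taken from KRas levels normalized to GAPDH.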

Row | Structure (SMILES) | Percent Degradation at Indicated Concentration (μM): 0.3 (H2030 cells, 0.3 μM) | Percent Degradation at Indicated Concentration (μM): 1 (H2030 cells, 1 μM) | Percent Degradation at Indicated Concentration (μM): 3 (H2030 cells, 3 μM) | Dmax (H2030 cells) [%] | Percent Degradation at Indicated Concentration (μM) (3 μM) | Percent Degradation at Indicated Concentration (μM) (0.3 μM) | Percent Degradation at Indicated Concentration (μM) (1 μM) | Dmax [%] | Percent Degradation at Indicated Concentration (μM): 0.1 (H2030 cells, 0.1 μM)
1 | CCC(=O)N1CCN(c2nc(NCCC(=O)N(C)CCOCCOCCOCC(=O)N[C@H](C(=O)N3C[C@H](O)C[C@H]3C(=O)N[C@@H](C)c3ccc(-c4scnc4C)cc3)C(C)(C)C)nc3c(F)c(-c4cc(O)cc5ccccc45)c(Cl)cc23)CC1 [compound 188, (2S,4R)-1-((2S)-2-(tert-butyl)-18-((6-chloro-8-fluoro-7-(3-hydroxynaphthalen-1-yl)-4-(4-propionylpiperazin-1-yl)quinazolin-2-yl)amino)-15-methyl-4,16-dioxo-6,9,12-trioxa-3,15-diazaoctadecanoyl)-4-hydroxy-N-((S)-1-(4-(4-methylthiazol-5-yl)phenyl)ethyl)pyrrolidine-2-carboxamide] | C (C ≤ 35) | C (C ≤ 35) | C (C ≤ 35) | ≤ 35 |  |  |  |  | 
2 | C=CC(=O)N1CCN(c2nc(NCCC(=O)N(C)CCOCCOCC(=O)N[C@H](C(=O)N3C[C@H](O)C[C@H]3C(=O)N[C@@H](C)c3ccc(-c4scnc4C)cc3)C(C)(C)C)nc3c(F)c(-c4c(O)cccc4F)c(Cl)cc23)CC1 (atropisomer, axis not shown) [compound 207, (2S,4R)-1-((S)-15-(((S)-4-(4-acryloylpiperazin-1-yl)-6-chloro-8-fluoro-7-(2-fluoro-6-hydroxyphenyl)quinazolin-2-yl)amino)-2-(tert-butyl)-12-methyl-4,13-dioxo-6,9-dioxa-3,12-diazapentadecanoyl)-4-hydroxy-N-((S)-1-(4-(4-methylthiazol-5-yl)phenyl)ethyl)pyrrolidine-2-carboxamide] |  |  |  |  | C (Percent Degradation: C ≤ 35) |  |  |  | 
3 | C=CC(=O)N1CCN(c2nc(NCCC(=O)N(C)CCOCCOCCOCCOCCOCC(=O)N[C@H](C(=O)N3C[C@H](O)C[C@H]3C(=O)N[C@@H](C)c3ccc(-c4scnc4C)cc3)C(C)(C)C)nc3c(F)c(-c4cc(O)cc5ccccc45)c(Cl)cc23)CC1 [compound 197, (2S,4R)-1-((2S)-24-((4-(4-acryloylpiperazin-1-yl)-6-chloro-8-fluoro-7-(3-hydroxynaphthalen-1-yl)quinazolin-2-yl)amino)-2-(tert-butyl)-21-methyl-4,22-dioxo-6,9,12,15,18-pentaoxa-3,21-diazatetracosanoyl)-4-hydroxy-N-((S)-1-(4-(4-methylthiazol-5-yl)phenyl)ethyl)pyrrolidine-2-carboxamide] | C (C ≤ 35) | C (C ≤ 35) | C (C ≤ 35) | ≤ 35 |  |  |  |  | 
4 | C=CC(=O)N1CCN(c2nc(NCCC(=O)N(C)CCOCCOCCOCCOCCOc3cc(-c4scnc4C)ccc3CNC(=O)[C@@H]3C[C@@H](O)CN3C(=O)[C@H](c3cc(C)no3)C(C)C)nc3c(F)c(-c4c(O)cccc4F)c(Cl)cc23)CC1 (atropisomer, axis not shown) [compound 132, (25,4R)-N-(2-((18-(((S)-4-(4-acryloylpiperazin-1-yl)-6-chloro-8-fluoro-7-(2-fluoro-6-hydroxyphenyl)quinazolin-2-yl)amino)-15-methyl-16-oxo-3,6,9,12-tetraoxa-15-azaoctadecyl)oxy)-4-(4-methylthiazol-5-yl)benzyl)-4-hydroxy-1-((S)-3-methyl-2-(3-methylisoxazol-5-yl)butanoyl)pyrrolidine-2-carboxamide] |  |  |  |  | C (Percent Degradation: C ≤ 35) | C (Percent Degradation: C ≤ 35) | C (Percent Degradation: C ≤ 35) | ≤ 35 | 
5 | CN(CCOCCOCCOCCNc1cccc2c1C(=O)N(C1CCC(=O)NC1=O)C2=O)C(=O)CCNc1nc(N2CCN(C(N)=O)CC2)c2cc(Cl)c(-c3c(O)cccc3F)c(F)c2n1 [compound 146, 4-((7S)-6-chloro-2-((1-((2-(2,6-dioxopiperidin-3-yl)-1,3-dioxoisoindolin-4-yl)amino)-12-methyl-13-oxo-3,6,9-trioxa-12-azapentadecan-15-yl)amino)-8-fluoro-7-(2-fluoro-6-hydroxyphenyl)quinazolin-4-yl)piperazine-1-carboxamide] |  |  |  |  | C (Percent Degradation: C ≤ 35) | C (Percent Degradation: C ≤ 35) | C (Percent Degradation: C ≤ 35) | ≤ 35 | 
6 | CCC(=O)N1CCN(c2nc(NCCC(=O)N(C)CCOCCOCC(=O)N[C@H](C(=O)N3C[C@H](O)C[C@H]3C(=O)N[C@@H](C)c3ccc(-c4scnc4C)cc3)C(C)(C)C)nc3c(F)c(-c4cc(O)cc5ccccc45)c(Cl)cc23)CC1 [compound 187, (2S,4R)-1-((2S)-2-(tert-butyl)-15-((6-chloro-8-fluoro-7-(3-hydroxynaphthalen-1-yl)-4-(4-propionylpiperazin-1-yl)quinazolin-2-yl)amino)-12-methyl-4,13-dioxo-6,9-dioxa-3,12-diazapentadecanoyl)-4-hydroxy-N-((S)-1-(4-(4-methylthiazol-5-yl)phenyl)ethyl)pyrrolidine-2-carboxamide] | C (C ≤ 35) | C (C ≤ 35) | C (C ≤ 35) | ≤ 35 |  |  |  |  | 
7 | C=CC(=O)N1CCN(c2nc(NCCC(=O)N(C)CCOCCOCCOc3ccc4c(c3)C(=O)N(C3CCC(=O)NC3=O)C4=O)nc3c(F)c(-c4cc(O)cc5ccccc45)c(Cl)cc23)CC1 (stereo not drawn) [compound 61, 3-((4-(4-acryloylpiperazin-1-yl)-6-chloro-8-fluoro-7-(3-hydroxynaphthalen-1-yl)quinazolin-2-yl)amino)-N-(2-(2-(2-((2-(2,6-dioxopiperidin-3-yl)-1,3-dioxoisoindolin-5-yl)oxy)ethoxy)ethoxy)ethyl)-N-methylpropanamide] | C (C ≤ 35) | C (C ≤ 35) |  | ≤ 35 |  |  |  |  | C (C ≤ 35)
8 | C=CC(=O)N1CCN(c2nc(NCCC(=O)N(C)CCOCCOCCOCCOc3cc(-c4scnc4C)ccc3CNC(=O)[C@@H]3C[C@@H](O)CN3C(=O)[C@@H](c3cc(C)no3)C(C)C)nc3c(F)c(-c4cc(O)cc5ccccc45)c(Cl)cc23)CC1 [compound 343, (2S,4R)-N-(2-((15-((4-(4-acryloylpiperazin-1-yl)-6-chloro-8-fluoro-7-(3-hydroxynaphthalen-1-yl)quinazolin-2-yl)amino)-12-methyl-13-oxo-3,6,9-trioxa-12-azapentadecyl)oxy)-4-(4-methylthiazol-5-yl)benzyl)-4-hydroxy-1-((R)-3-methyl-2-(3-methylisoxazol-5-yl)butanoyl)pyrrolidine-2-carboxamide] |  |  |  |  | C (Percent Degradation: C ≤ 35) | C (Percent Degradation: C ≤ 35) | C (Percent Degradation: C ≤ 35) | ≤ 35 | 
9 | C=CC(=O)N1CCN(c2nc(NCCC(=O)N(C)CCOCCOCCOCCOCCOc3ccc4c(c3)C(=O)N(C3CCC(=O)NC3=O)C4=O)nc3c(F)c(-c4c(O)cccc4F)c(Cl)cc23)CC1 [compound 75, 3-(((S)-4-(4-acryloylpiperazin-1-yl)-6-chloro-8-fluoro-7-(2-fluoro-6-hydroxyphenyl)quinazolin-2-yl)amino)-N-(14-((2-(2,6-dioxopiperidin-3-yl)-1,3-dioxoisoindolin-5-yl)oxy)-3,6,9,12-tetraoxatetradecyl)-N-methylpropanamide] |  |  |  |  | C (Percent Degradation: C ≤ 35) | C (Percent Degradation: C ≤ 35) | C (Percent Degradation: C ≤ 35) | ≤ 35 | 
10 | C=CC(=O)N1CCN(c2nc(NCCC(=O)N(C)CCNc3cccc4c3C(=O)N(C3CCC(=O)NC3=O)C4=O)nc3c(F)c(-c4c(O)cccc4F)c(Cl)cc23)CC1 [compound 108, 3-(((R)-4-(4-acryloylpiperazin-1-yl)-6-chloro-8-fluoro-7-(2-fluoro-6-hydroxyphenyl)quinazolin-2-yl)amino)-N-(2-((2-(2,6-dioxopiperidin-3-yl)-1,3-dioxoisoindolin-4-yl)amino)ethyl)-N-methylpropanamide] |  |  |  |  | C (Percent Degradation: C ≤ 35) | C (Percent Degradation: C ≤ 35) | C (Percent Degradation: C ≤ 35) | ≤ 35 | 
11 | CCC(=O)N1CCN(c2nc(NCCC(=O)N(C)CCOCCOCCOc3ccc4c(c3)CN(C3CCC(=O)NC3=O)C4=O)nc3c(F)c(-c4cc(O)cc5ccccc45)c(Cl)cc23)CC1 (stereo not drawn) [compound 52, 3-((6-chloro-8-fluoro-7-(3-hydroxynaphthalen-1-yl)-4-(4-propionylpiperazin-1-yl)quinazolin-2-yl)amino)-N-(2-(2-(2-((2-(2,6-dioxopiperidin-3-yl)-1-oxoisoindolin-5-yl)oxy)ethoxy)ethoxy)ethyl)-N-methylpropanamide] | C (C ≤ 35) | C (C ≤ 35) | C (C ≤ 35) | ≤ 35 |  |  |  |  | 
12 | C=CC(=O)N1CCN(c2nc(NCCC(=O)N(C)CCOCCOCCOCCOc3cc(-c4scnc4C)ccc3CNC(=O)[C@@H]3C[C@@H](O)CN3C(=O)[C@H](c3cc(C)no3)C(C)C)nc3c(F)c(-c4cc(O)cc5ccccc45)c(Cl)cc23)CC1 [compound 344] |  |  |  |  | C (Percent Degradation: C ≤ 35) | C (Percent Degradation: C ≤ 35) | C (Percent Degradation: C ≤ 35) | ≤ 35 | 
